Assay results published in patent publication US9968582B2, “Use of a benzoate containing composition in urea cycle disorders and neurodegenerative disorders” (Rush University Medical Center, priority 2014, dated 2018).

Tests used:
[1] = system: dopamine (DA) in the striata; assay: MPTP mouse model of PD, HPLC of striatal dopamine; assay type: in vivo, mice; conditions: FIG. 10
Procedure: (§1) Six- to eight-week old C57BL/6 mice were purchased from Harlan (Indianapolis, Ind.). For acute MPTP intoxication, mice received four intraperitoneal (i.p.) injections of MPTP-HCl (18 mg/kg of free base; Sigma Chemical Co., St. Louis, Mo.) in saline at 2-h intervals. Control animals received only saline.
(§2) GTB was mixed in 0.5% methylcellulose (MC) and from 3 h after the last injection of MPTP, mice were gavaged 100 μL GTB-mixed MC once daily using gavage needle. Therefore, control MPTP mice received only MC as vehicle.
Striatal level of dopamine was quantified in Complete Stand-Alone HPLC-ECD System EiCOMHTEC-500 (JM Science Inc., Grand Island, N.Y.). Briefly, mice were sacrificed by cervical dislocation after 7 days of MPTP intoxication and their striata were collected and immediately frozen in dry ice and stored at −80° C. until analysis. On the day of the analysis, tissues were sonicated in 0.2M perchloric acid containing isoproterenol and resulting homogenates were centrifuged at 20,000×g for 15 min at 4 C. After pH adjustment and filtration, 10 μl of supernatant was injected onto an Eicompak SC-3ODS column (Complete Stand-Alone HPLC-ECD System EiCOMHTEC-500 from JM Science Inc., Grand Island, N.Y.) and analyzed following the manufacturer's protocol.
Next, to determine whether GTB protects against biochemical deficits caused by MPTP, the inventor quantified levels of dopamine (DA) in the striata 7 days after the MPTP treatment. As evident from FIG. 10, MPTP intoxication led to about 75% decrease in striatal DA compared to striata of saline-injected control mice.

[2] = system: myelin basic protein (MBP); assay: Myelin gene mRNA expression in spinal cord of EAE mice: MBP; assay type: in vivo; conditions: FIG. 5C-E
Procedure: (§3) Total RNA was isolated from splenic T cells and spinal cord by using the RNeasy mini kit (Qiagen, Valencia, Calif.) and from spleen and cerebellum by using the Ultraspec-II RNA reagent (Biotecx laboratories, Inc, Houston, Tex.) following manufacturer's protocol. To remove any contaminating genomic DNA, total RNA was digested with DNase. Semi-quantitative RT-PCR was carried out using a RT-PCR kit from Clonetech (Mountain View, Calif.). Briefly, 1 μg of total RNA was reverse transcribed using oligo(dT)12-18 as primer and MMLV reverse transcriptase (Clontech) in a 20 μL reaction mixture. […]
(§4) The relative expression of each gene with respect to GAPDH was measured after scanning the bands with a Fluor Chem 8800 Imaging System (Alpha Innotech, San Leandro, Calif.).
(§5) Real-time PCR analysis was performed using the ABI-Prism7700 sequence detection system (Applied Biosystems, Foster City, Calif.). […] Data were processed by the ABI Sequence Detection System 1.6 software and analyzed by ANOVA.
(§6) Demyelination is the most important pathological feature in MS, which is also modeled in EAE animals. […] To confirm this finding, the inventor monitored the expression of […] myelin genes, myelin basic protein (MBP) and proteolipid protein (PLP), and observed a marked loss of mRNA expression of these genes in the spinal cord of untreated EAE mice compared to control mice (FIG. 5C-E).

[3] = Observation of drug related side effects in mice; assay type: in vivo; conditions: any of the mice used during the course of the study
[4] = system: Foxp3+CD4+ population of T cells; assay: Flow cytometry of Tregs in splenocytes of EAE mice; assay type: in vivo; conditions: FIG. 7A-D
Procedure: Two-color flow cytometry was performed as described previously. Briefly, 1×10^6 lymph node cells (LNC) or splenocytes suspended in flow staining buffer were incubated at 4° C. with appropriately diluted FITC-labeled Ab to CD4 for 30 min, washed, and re-suspended in fixation and permeabilization solution. Following incubation in dark for 30 min, cells were washed, blocked with test Fc block (anti-mouse CD16/32) in permeabilization buffer, and subsequently incubated with appropriately diluted PE-labeled Abs to Foxp3 at 4° C. in the dark. After incubation, the cell suspension was centrifuged, washed thrice, and re-suspended in flow staining buffer. The cells then were analyzed through FACS (BD Biosciences, San Jose, Calif.). Cells were gated based on morphological characteristics. Apoptotic and necrotic cells were not accepted for FACS analysis.
Since TGF-β is involved in the differentiation of non-Tregs into Tregs, the inventor monitored the status of Tregs in EAE mice. A major population of Tregs is characterized by a transcription factor FoxP3. During autoimmune insults, Tregs become both numerically and functionally defective. Therefore, as expected, the inventor observed significant reduction in Foxp3+CD4+ population of T cells in EAE splenocytes as evident from FACS dot plot (FIG. 7A-B). […]

DJ-1 = assay: MPTP mouse model of PD, Western blot of DJ-1 in the nigra; assay type: in vivo, mice; conditions: oral GTB in MPTP-intoxicated mice, dose-dependent; FIG. 9A-B
Procedure: as §1, §2
Immunoblot analysis for DJ-1 and TH was carried out. Briefly, cell homogenates were electrophoresed, proteins were transferred onto a nitrocellulose membrane, and bands were visualized with an Odyssey infrared scanner after immunolabeling with respective primary antibodies followed by infra-red fluorophore-tagged secondary antibody (Invitrogen).
Upregulation and/or maintenance of PD-related beneficial protein such as DJ-1 in the nigra during neurodegenerative insults may have therapeutic efficacy in PD.

[5] = system: proteolipid protein (PLP); assay: Myelin gene mRNA expression in spinal cord of EAE mice: PLP; assay type: in vivo; conditions: FIG. 5C-E
Procedure: as §3, §4, §5, §6

O=C(OCC(COC(=O)c1ccccc1)OC(=O)c1ccccc1)c1ccccc1 [GTB, glyceryl tribenzoate]
decrease in striatal dopamine ([1]; GTB 50 mg/kg body wt/d in MPTP-intoxicated mice, MPTP alone about 75% decrease): 25% | dopamine in the striatum ([1]; GTB in MPTP-intoxicated mice, 7 days after MPTP): dose-dependently protected dopamine | MBP mRNA expression in the spinal cord [2]: significant restoration of myelin gene mRNA expression | drug related side effect (e.g. hair loss, weight loss, untoward infection) [3]: did not notice any drug related side effect | Foxp3+CD4+ population in splenocytes [4]: led to the increase in Foxp3+CD4+ population | level of DJ-1 in the nigra (DJ-1): protected DJ-1 in the nigra | PLP mRNA expression in the spinal cord [5]: significant restoration of myelin gene mRNA expression
